Measured values from patent US20220142948A1, “COMPOSITIONS AND METHODS FOR MODULATING METABOLIC REGULATORS OF T CELL PATHOGENICITY” (The Broad Institute, Inc., priority 2019, published 2022).
“Also recorded” adds a separate entry of the source.

How the values were obtained:
[1] = tested on: Th17 cells (Th17n, Th17p); assay: Protein, phospho-protein and histone mark analysis by flow cytometry; type: cell-based, mouse
Protocol: Proliferation was assessed by staining with CellTrace Violet (Thermo Fisher Scientific) per manufacturer's instructions. Apoptosis was assessed using Annexin V staining kit (BioLegend). Phosphorylation of proteins to determine cell signaling was performed with BD Phosflow buffer system (BD bioscience) as per manufacturer's instructions.
T cell differentiation culture and flow cytometry. Naïve CD4+CD44-CD62L+CD25− T cells were sorted using BD FACSAria sorter and activated with plate-bound anti-CD3 (1 μg/ml) and antiCD28 antibodies (1 μg/ml) in the presence of cytokines at a concentration of 5×10^5 cells/ml. For T cell differentiations the following combinations of cytokines were used: pathogenic Th17: 25 ng/ml rmIL-6, 20 ng/ml rmIL-1b (both Miltenyi Biotec) and 20 ng/ml rmIL-23 (R&D systems); non-pathogenic Th17: 25 ng/ml rmIL-6 and 2 ng/ml of rhTGFb1 (Miltenyi Biotec); iTreg: 2 ng/ml of rhTGFb1; Th1: 20 ng/ml rmIL-12 (R&D systems); Th2: 20 ng/ml rmIL-4 (Miltenyi Biotec). Intracellular cytokine staining was performed after incubation for 4-6h with Cell Stimulation cocktail plus Golgi transport inhibitors (Thermo Fisher Scientific) using the BD Cytofix/Cytoperm buffer set (BD Biosciences) per manufacturer's instructions. Transcription factor staining was performed using the Foxp3/Transcription Factor Staining Buffer Set (eBioscience). Proliferation was assessed by staining with CellTrace Violet (Thermo Fisher Scientific) per manufacturer's instructions. Apoptosis was assessed using Annexin V staining kit (BioLegend). Phosphorylation of proteins to determine cell signaling was performed with BD Phosflow buffer system (BD bioscience) as per manufacturer's instructions.

[2] = tested on: Th17n, Th17p and iTreg cells; assay: Population (bulk) RNA-seq of in vitro differentiated T cells; type: cell-based, mouse
Protocol: (§1) RNA-seq. For population (bulk) RNA-seq, in vitro differentiated T-cells were sorted for live cells and lysed with RLT Plus buffer and RNA was extracted using the RNeasy Plus Mini Kit (Qiagen). Full-length RNA-seq libraries were prepared as previously described and paired-end sequenced (75 bp×2) with a 150 cycle Nextseq 500 high output V2 kit.
Bulk RNA-Seq and SMART-Seq2 analysis. Applicants aligned single-cell SMART-Seq2 libraries with Bowtie2, quantified TPM gene expression with RSEM, and performed QC as Applicants described in detail in a previous publication^51. This computational pipeline is a massively revised and updated version of the one originally used to analyze these libraries^19. Batch effects and other nuisance factors were normalized with a model chosen empirically with SCONE ^52. Bulk RNA-Seq were processed with a modified variant of the same pipeline. In the absence of UMIs, differentially expressed genes were called through a linear model fitted to TPM values with the limma R package and with a mean-variance trend added to the empirical bayes prior^53,54.
as §1
Bulk RNA libraries from DFMO- or vehicle-treated Th17p, Th17n, or Treg were studied with 3 replicates per condition for a total of 18 libraries as shown in FIG. 36A. Genes that are associated with a Th17 or Treg programs (orange and purple, respectively, in FIG. 36B-C) were determined by differential expression test between bulk RNA libraries of (vehicle-treated) Th17n and Th17p on one side and Treg on the other with BH-adjusted p<0.05 and absolute value of log 2 fold-change of at least 1.5. Genes associated with the Th17p or Th17n program (magenta and green, respectively, in FIG. 40A) were determined by differential expression test between bulk RNA libraries of (vehicle-treated) Th17p vs. Th17n with the same thresholds. The PCA shown in FIG. 36A was computed on the set of 3,414 that were differentially associated with Th17, Treg, Th17p, or Th17n programs by the aforementioned criteria to focus it on the subspace of the transcriptome relevant to Th17 pathogenicity phenotypes.
Applicants aligned single-cell SMART-Seq libraries with Bowtie2, quantified TPM gene expression with RSEM, and performed QC as Applicants described in detail in a previous publication (Fletcher et al., 2017). This computational pipeline is a massively revised and updated version of the one originally used to analyze these libraries (Gaublomme et al., 2015). Batch effects and other nuisance factors were normalized with a model chosen empirically with SCONE (Cole et al., 2019). Bulk RNA-Seq were processed with a modified variant of the same pipeline.
For the Smart-Seq libraries, due the absence of UMIs in the dataset, differentially expressed genes were called through a linear model _tted to TPM values with the limma R package and with a mean-variance trend added to the empirical Bayes prior (Ritchie et al., 2015). For the bulk RNA libraries, differentially expressed genes were called with limma-trend or limma-voom (Law et al., 2014) depending on the variance of library sizes, as recommended in the limma package manual (Smyth, 2019).

Which “total Stat3 protein levels” value [1] does the source give for NCCC[C@](N)(C(=O)O)C(F)F [DFMO, 2-(difluoromethyl)ornithine] here?
The value was “not total Stat3 protein levels”.

What about the H3K4 trimethylation ([1]; Th17 cells) of the same compound?
Its H3K4 trimethylation is “promoted”.

What about the H3K9 trimethylation ([1]; Th17 cells) of the same compound?
The H3K9 trimethylation was “promoted”.

What about the H3K27 trimethylation ([1]; Th17 cells) of the same compound?
The H3K27 trimethylation was “promoted”.

And the pStat3 ([1]; Th17 cells)?
Its pStat3 is “does not seem to alter; also recorded: did not alter; also recorded: inconsistently regulated”.

What about the pStat3 ([1]; Th17p cells) of the same compound?
The pStat3 was “decreased”.

And the “pFoxo1(S256)” value ([1]; both types of Th17 cells)?
Its value is “promoted”.

And the “expression of chromatin modifiers / chromatin associated genes” value [2]?
Its value is “alters chromatin associated genes; also recorded: significant changes”.

What about the “genes shared / expressed comparably between Th17 and Treg cells” value [2] of the same compound?
The value was “do not change; also recorded: no significant effect”.

What about the “transcriptome shift (principal component analysis)” value ([2]; Th17 and iTreg cells) of the same compound?
Its value is “shift Th17 cells to Treg-like transcriptome; also recorded: shift the cells towards Treg gene expression; also recorded: clearly driving cells towards Treg cells; also recorded: driving Th17 cells towards Treg cell profiles; also recorded: promotes Treg-like transcriptome”.

And the Foxp3 ([2]; Th17 cells)?
The Foxp3 was “upregulated”.

And the Il17a ([2]; Th17 cells)?
The Il17a was “significantly suppressed”.

And the Il17f ([2]; Th17 cells)?
Its Il17f is “significantly suppressed”.

What about the Il23r ([2]; Th17 cells) of the same compound?
Its Il23r is “significantly suppressed”.

What about the “Th17 specific genes / transcriptome” value ([2]; Th17n and Th17p cells) of the same compound?
Its value is “reducing canonical Th17 genes; also recorded: shift Th17 specific genes down; also recorded: suppressed”.

And the “Treg specific genes / transcriptome” value ([2]; Th17n and Th17p cells)?
The value was “shift Treg specific genes up; also recorded: promoted”.

What about the “proinflammatory state genes (upregulated in Th17p)” value ([2]; Th17p cells) of the same compound?
Its value is “downregulation”.

What about the “regulatory state genes (upregulated in Th17n)” value ([2]; Th17p cells) of the same compound?
The value was “significant upregulation”.

epigallocatechin-3-gallate [EGCG] was tested. Which CASP1 ([2]; Th17n) did it give?
Its CASP1 is “up-regulated; also recorded: upregulating”.

And the IKZF3 ([2]; Th17n)?
The IKZF3 was “downregulated; also recorded: downregulating”.

And the IL7R ([2]; Th17n)?
Its IL7R is “up-regulated; also recorded: upregulating”.

And the IL22 ([2]; Th17n)?
Its IL22 is “up-regulated; also recorded: upregulating”.

What about the “pro-pathogenic transcriptional program / module” value ([2]; Th17n cells) of the same compound?
Its value is “promotes the pro-pathogenic module; also recorded: clearly strengthened”.

What about the pro-regulatory module ([2]; Th17n cells) of the same compound?
Its pro-regulatory module is “suppresses the pro-regulatory module”.

And the “position on PC1 (pathogenicity phenotype)” value ([2]; bulk RNA-Seq of d1 Th17n and Th17p cells)?
The value was “toward a more pathogenic one; also recorded: shifted cell profiles towards a more pathogenic state”.
